Measured values taken from patent EP0094632A1, “(-)-15-Deoxyspergualin, a process for the preparation of the same, and a pharmaceutical composition containing the same” (priority 1982, dated 1983).

Tests used:
[1] = tested on: Bacillus subtilis PCI-219; test: Antibacterial activity relative to (-)-spergualin; format: cell-based; conditions: relative to (-)-spergualin (3HCl·½H2O)
Source text: The compound was colorless and syrupy, and its melting point could not be measured clearly. […] The antibacterial activity against Bacillus subtilis PCI-219' was 134 % of that of (-)-spergualin (3HCl·½H2O).

Chemical stability = format: physicochemical
[2] = tested on: Mouse Leukemia L1210 cells; test: Treatment of mouse Leukemia L1210 (survival of intraperitoneally inoculated mice); format: in vivo; conditions: for No. of mice that survived 60 days: groups of 8 mice; for T/C %: observed 60 days
Procedure: […] Mouse Leukemia L1210 cells were inoculated intraperitoneally to groups of 8 mice each. The test compound dissolved in physiological saline solution was intraperitoneally administered once daily for 9 consecutive days, starting on the day inoculation. The animals were raised and observed for 60 days to determine survival rates (%). The survival rates were calculated from the following equation:
T [average period (in days) of survival for the treatment group] X 100
C [average period (in days) for survival for the non-treatment group]
The average survival period for the control (non-treatment group was 7.6 go 8.9 days.
The test results are shown in Table 1 along with those on (-)-spergualin.
Table 1:Efficacy of (-)-15-deoxyspergualin in the treatment of mose Leukemia L1210

[3] = Carcinostatic action compared with synthetic 15-deoxyspergualin; conditions: compared with 15-deoxyspergualin synthesized previously by condensation
[4] = 0.05 mg/kg/day i.p. once daily for 9 days
[5] = 0.10 mg/kg/day i.p. once daily for 9 days
[6] = 0.20 mg/kg/day i.p. once daily for 9 days
[7] = 0.39 mg/kg/day i.p. once daily for 9 days
[8] = 0.78 mg/kg/day i.p. once daily for 9 days
[9] = 1.56 mg/kg/day i.p. once daily for 9 days
[10] = 3.13 mg/kg/day i.p. once daily for 9 days
[11] = 6.25 mg/kg/day i.p. once daily for 9 days
[12] = 12.5 mg/kg/day i.p. once daily for 9 days
[13] = 25 mg/kg/day i.p. once daily for 9 days
[14] = 50 mg/kg/day i.p. once daily for 9 days

## N=C(N)NCCCCCCC(=O)NC(O)C(=O)NCCCCNCCCN (single isomer, unassigned; (-)) [(-)-15-Deoxyspergualin, (-)-15-deoxyspergualin]
[1]
  antibacterial activity against Bacillus subtilis PCI-219, % of that of (-)-spergualin: 134%
Chemical stability; alkalis and acids
  stability to alkalis and acids: very unstable
Chemical stability; free base
  stability in the form of a free base: unstable
[2]; [4]
  No. of mice that survived 60 days: 0/8
  T/C %: 129%
[2]; [5]
  No. of mice that survived 60 days: 0/8
  T/C %: 138%
[2]; [6]
  No. of mice that survived 60 days: 6/8
  T/C %: >664%
[2]; [7]
  No. of mice that survived 60 days: 6/8
  T/C %: >629%
[2]; [8]
  No. of mice that survived 60 days: 8/8
  T/C %: >789%
[2]; [9]
  No. of mice that survived 60 days: 2/8
  T/C %: >493%
[2]; [10]
  No. of mice that survived 60 days: 2/8
  T/C %: >526%
[2]; [11]
  No. of mice that survived 60 days: 0/8
  T/C %: 408%
[3]
  carcinostatic action: markedly better carcinostatic action

## N=C(N)NCCCC[C@H](O)CC(=O)NC(O)C(=O)NCCCCNCCCN (single isomer, unassigned; (-)) [(-)-Spergualin, (-)-spergualin, reference compound]
[2]; [8]
  No. of mice that survived 60 days: 0/8
  T/C %: 107%
[2]; [9]
  No. of mice that survived 60 days: 1/8
  T/C %: >301%
[2]; [10]
  No. of mice that survived 60 days: 3/8
  T/C %: >441%
[2]; [11]
  No. of mice that survived 60 days: 8/8
  T/C %: >732%
[2]; [12]
  No. of mice that survived 60 days: 4/8
  T/C %: >586%
[2]; [13]
  No. of mice that survived 60 days: 0/8
  T/C %: 334%
[2]; [14]
  No. of mice that survived 60 days: 0/8
  T/C %: 295%
